Experimental findings from ChEMBL document CHEMBL5465560, “Selectivity Literature for EUbOPEN Chemogenomic Library” (2024) are described below.

Assay [1] addresses DNA (cytosine-5)-methyltransferase 1 (Homo sapiens) (UniProt P26358). Kind of assay: Selectivity interaction (Methyltransferase screen (Scintillation proximity assays)) EUB0000255b DNMT1. On the technique in general: In a scintillation proximity assay essentially only radioactivity close to the scintillant gives light.
Assay [2] addresses Calcium/calmodulin-dependent protein kinase kinase 1 (Homo sapiens) (UniProt Q8N5S9). Kind of assay: Selectivity interaction (KinomeScan (DiscoverX)) EUB0001619a CAMKK1. The following applies: at 1 µM.
For assay [3], the target named is Type-1 angiotensin II receptor (Homo sapiens) (UniProt P30556). Kind of assay: Selectivity interaction (Eurofins CEREP Diversity Profile (receptors and ion channels)) EUB0000279b AGTR1. As to conditions: at 10 µM.
For assay [4], the target named is T1, Atypical kinase COQ8B, mitochondrial (Homo sapiens) (UniProt Q96D53).
T1 sequence (whole entry): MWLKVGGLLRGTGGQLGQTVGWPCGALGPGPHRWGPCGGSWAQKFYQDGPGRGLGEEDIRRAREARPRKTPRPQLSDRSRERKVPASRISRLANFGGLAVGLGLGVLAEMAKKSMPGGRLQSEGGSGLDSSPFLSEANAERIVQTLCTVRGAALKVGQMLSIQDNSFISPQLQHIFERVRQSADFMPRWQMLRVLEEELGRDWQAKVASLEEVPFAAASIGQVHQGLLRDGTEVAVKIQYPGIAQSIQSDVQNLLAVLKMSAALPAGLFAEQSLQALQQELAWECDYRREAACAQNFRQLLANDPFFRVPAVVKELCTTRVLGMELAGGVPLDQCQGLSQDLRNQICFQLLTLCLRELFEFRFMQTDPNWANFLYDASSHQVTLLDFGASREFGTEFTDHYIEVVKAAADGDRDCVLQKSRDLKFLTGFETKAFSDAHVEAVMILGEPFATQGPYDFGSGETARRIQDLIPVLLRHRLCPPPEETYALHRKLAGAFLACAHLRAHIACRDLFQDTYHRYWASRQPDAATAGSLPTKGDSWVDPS
As to conditions: at 10 µM.

Assay [5] addresses Phosphatidylinositol 4-phosphate 3-kinase C2 domain-containing subunit beta (Homo sapiens) (UniProt O00750). Kind of assay: Selectivity interaction (KinomeScan (DiscoverX)) EUB0000695a PIK3C2B. As to conditions: at 100 nM.
For assay [6], the target named is 5'-AMP-activated protein kinase catalytic subunit alpha-2 (Homo sapiens) (UniProt P54646). Kind of assay: Selectivity interaction (KinomeScan (DiscoverX)) EUB0000666a PRKAA2. The following applies: at 10 µM.
The target of assay [7] is Serine/threonine-protein kinase 33 (Homo sapiens) (UniProt Q9BYT3). The following applies: at 10 µM.
Assay [8] deals with Serine/threonine-protein kinase 24 (Homo sapiens) (UniProt Q9Y6E0). In words: Selectivity interaction (ActivX KiNativ screen (kinase selectivity in THP-1 cell lysates)) EUB0000639a STK24. It is filed as subcellular. The following applies: lysate, at 0.04 µM.
Assay [9] concerns the target LIM domain kinase 2 (Homo sapiens) (UniProt P53671). In words: Selectivity interaction (Kinase panel (Invitrogen)) EUB0000639a LIMK2. As to conditions: at 200 nM.
The target in assay [10] is Tyrosine-protein kinase JAK1 (Homo sapiens, UniProt P23458). Kind of assay: Selectivity interaction (Kinase panel (Carna Biosciences)) EUB0001542aTs JAK1. The following applies: at 1 µM.
Assay [11] has as its target T2, Mitogen-activated protein kinase kinase kinase 3 (Homo sapiens) (UniProt Q99759).
T2 sequence (whole entry): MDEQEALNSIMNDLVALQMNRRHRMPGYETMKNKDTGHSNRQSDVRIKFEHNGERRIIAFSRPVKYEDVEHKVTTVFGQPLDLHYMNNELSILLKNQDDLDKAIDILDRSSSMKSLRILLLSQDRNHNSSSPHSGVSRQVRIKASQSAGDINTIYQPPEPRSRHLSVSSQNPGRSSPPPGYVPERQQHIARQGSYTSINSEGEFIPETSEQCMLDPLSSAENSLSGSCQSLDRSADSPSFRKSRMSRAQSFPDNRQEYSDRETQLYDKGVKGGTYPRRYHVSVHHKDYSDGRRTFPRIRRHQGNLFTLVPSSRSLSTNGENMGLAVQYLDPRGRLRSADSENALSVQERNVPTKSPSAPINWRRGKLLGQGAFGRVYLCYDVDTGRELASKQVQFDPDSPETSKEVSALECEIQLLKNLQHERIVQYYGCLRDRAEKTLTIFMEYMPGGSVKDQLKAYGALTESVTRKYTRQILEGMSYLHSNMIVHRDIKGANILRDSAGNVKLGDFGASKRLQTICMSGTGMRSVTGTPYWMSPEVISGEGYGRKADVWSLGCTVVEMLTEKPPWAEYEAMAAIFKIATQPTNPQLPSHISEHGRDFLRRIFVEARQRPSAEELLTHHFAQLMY
In words: Selectivity interaction (KinomeScan (DiscoverX)) EUB0000655a MAP3K3. The following applies: at 10 µM.

Assay [12] deals with Serine/threonine-protein kinase MRCK gamma (Homo sapiens) (UniProt Q6DT37). Kind of assay: Selectivity interaction (KinomeScan (DiscoverX)) EUB0000618a CDC42BPG. The following applies: at 10 µM.
Assay [13] concerns the target Serine/threonine-protein kinase PAK 4 (Homo sapiens, UniProt O96013). Kind of assay: Selectivity interaction (Kinase panel (DSF assay)) EUB0001558a PAK4. (In general: Differential scanning fluorimetry follows unfolding on heating by fluorescence.)
Assay [14] addresses Serine/threonine-protein kinase VRK2 (Homo sapiens) (UniProt Q86Y07). In words: Selectivity interaction (KinomeScan (DiscoverX)) EUB0001079a VRK2. As to conditions: at 1 µM.
The target of another assay is D(2) dopamine receptor (Homo sapiens, UniProt P14416). In words: Selectivity interaction (Panel of kinases, GPCRs, ion channels and transporters (enzymatic assay)) EUB0000266bCl DRD2.
For assay [15], the target named is Phosphatidylinositol 4-kinase alpha (Homo sapiens, UniProt P42356). In words: Selectivity interaction (Kinase panel (KiNativ target engagement assay in Jurkat cells)) EUB0001635a PI4KA. As to conditions: Selectivity number of off-targets 0.0, Selectivity number of targets 233.0, Source Knowledge https://www.sciencedirect.com/science/article/pii/S2451945619300674?via%3Dihub, at 1 µM. The assay is classed as cell-based.

Assay [16] has as its target Serine/threonine-protein kinase PRP4 homolog (Homo sapiens) (UniProt Q13523). In words: Selectivity interaction (Kinase panel (KiNativ target engagement assay in Jurkat cells)) EUB0001635a PRPF4. It is filed as cell-based. As to conditions: Selectivity number of off-targets 0.0, Selectivity number of targets 233.0, Source Knowledge https://www.sciencedirect.com/science/article/pii/S2451945619300674?via%3Dihub, at 1 µM.

Sequence of DNA (cytosine-5)-methyltransferase 1 (Homo sapiens) (P26358 whole entry): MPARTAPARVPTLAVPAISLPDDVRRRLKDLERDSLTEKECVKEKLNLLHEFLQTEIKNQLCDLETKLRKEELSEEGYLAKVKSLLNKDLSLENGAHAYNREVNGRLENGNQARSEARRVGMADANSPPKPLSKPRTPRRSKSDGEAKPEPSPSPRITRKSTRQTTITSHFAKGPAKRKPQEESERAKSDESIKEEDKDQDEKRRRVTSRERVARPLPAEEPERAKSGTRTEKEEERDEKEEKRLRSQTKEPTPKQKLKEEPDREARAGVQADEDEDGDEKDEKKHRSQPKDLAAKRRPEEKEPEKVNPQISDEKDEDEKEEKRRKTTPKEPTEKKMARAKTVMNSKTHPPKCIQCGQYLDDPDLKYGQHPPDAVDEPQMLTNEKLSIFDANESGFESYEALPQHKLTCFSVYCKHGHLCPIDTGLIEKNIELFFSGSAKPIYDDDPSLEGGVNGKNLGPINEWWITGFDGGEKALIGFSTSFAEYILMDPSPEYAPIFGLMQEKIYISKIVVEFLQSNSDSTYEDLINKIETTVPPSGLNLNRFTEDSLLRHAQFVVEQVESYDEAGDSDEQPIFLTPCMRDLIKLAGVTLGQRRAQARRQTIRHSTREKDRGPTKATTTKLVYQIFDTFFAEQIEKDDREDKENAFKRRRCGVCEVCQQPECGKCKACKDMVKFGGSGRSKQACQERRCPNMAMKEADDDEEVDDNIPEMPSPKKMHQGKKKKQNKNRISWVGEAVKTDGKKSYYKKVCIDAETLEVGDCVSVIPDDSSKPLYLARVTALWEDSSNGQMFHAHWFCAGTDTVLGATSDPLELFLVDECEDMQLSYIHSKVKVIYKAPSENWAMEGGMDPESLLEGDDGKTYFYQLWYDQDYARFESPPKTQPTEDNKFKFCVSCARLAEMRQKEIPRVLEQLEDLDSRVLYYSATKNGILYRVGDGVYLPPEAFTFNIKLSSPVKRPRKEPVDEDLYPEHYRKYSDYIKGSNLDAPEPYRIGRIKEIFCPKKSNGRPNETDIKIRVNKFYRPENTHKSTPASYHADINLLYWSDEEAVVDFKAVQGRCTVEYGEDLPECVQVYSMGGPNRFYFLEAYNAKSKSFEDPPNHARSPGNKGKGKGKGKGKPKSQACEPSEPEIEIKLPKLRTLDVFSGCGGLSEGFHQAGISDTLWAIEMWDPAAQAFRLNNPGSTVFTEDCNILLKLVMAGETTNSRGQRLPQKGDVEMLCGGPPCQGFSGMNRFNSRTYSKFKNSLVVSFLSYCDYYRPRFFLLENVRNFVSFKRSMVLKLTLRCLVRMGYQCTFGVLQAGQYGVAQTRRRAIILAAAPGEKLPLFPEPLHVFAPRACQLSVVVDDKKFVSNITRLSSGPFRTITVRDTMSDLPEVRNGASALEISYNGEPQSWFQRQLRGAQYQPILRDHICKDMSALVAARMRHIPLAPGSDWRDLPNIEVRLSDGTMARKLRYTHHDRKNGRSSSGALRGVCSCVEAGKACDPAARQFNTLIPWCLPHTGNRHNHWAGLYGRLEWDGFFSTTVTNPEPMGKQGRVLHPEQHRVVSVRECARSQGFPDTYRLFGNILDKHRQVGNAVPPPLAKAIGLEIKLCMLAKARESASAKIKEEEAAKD
Sequence of Phosphatidylinositol 4-kinase alpha (P42356 whole entry, looked up): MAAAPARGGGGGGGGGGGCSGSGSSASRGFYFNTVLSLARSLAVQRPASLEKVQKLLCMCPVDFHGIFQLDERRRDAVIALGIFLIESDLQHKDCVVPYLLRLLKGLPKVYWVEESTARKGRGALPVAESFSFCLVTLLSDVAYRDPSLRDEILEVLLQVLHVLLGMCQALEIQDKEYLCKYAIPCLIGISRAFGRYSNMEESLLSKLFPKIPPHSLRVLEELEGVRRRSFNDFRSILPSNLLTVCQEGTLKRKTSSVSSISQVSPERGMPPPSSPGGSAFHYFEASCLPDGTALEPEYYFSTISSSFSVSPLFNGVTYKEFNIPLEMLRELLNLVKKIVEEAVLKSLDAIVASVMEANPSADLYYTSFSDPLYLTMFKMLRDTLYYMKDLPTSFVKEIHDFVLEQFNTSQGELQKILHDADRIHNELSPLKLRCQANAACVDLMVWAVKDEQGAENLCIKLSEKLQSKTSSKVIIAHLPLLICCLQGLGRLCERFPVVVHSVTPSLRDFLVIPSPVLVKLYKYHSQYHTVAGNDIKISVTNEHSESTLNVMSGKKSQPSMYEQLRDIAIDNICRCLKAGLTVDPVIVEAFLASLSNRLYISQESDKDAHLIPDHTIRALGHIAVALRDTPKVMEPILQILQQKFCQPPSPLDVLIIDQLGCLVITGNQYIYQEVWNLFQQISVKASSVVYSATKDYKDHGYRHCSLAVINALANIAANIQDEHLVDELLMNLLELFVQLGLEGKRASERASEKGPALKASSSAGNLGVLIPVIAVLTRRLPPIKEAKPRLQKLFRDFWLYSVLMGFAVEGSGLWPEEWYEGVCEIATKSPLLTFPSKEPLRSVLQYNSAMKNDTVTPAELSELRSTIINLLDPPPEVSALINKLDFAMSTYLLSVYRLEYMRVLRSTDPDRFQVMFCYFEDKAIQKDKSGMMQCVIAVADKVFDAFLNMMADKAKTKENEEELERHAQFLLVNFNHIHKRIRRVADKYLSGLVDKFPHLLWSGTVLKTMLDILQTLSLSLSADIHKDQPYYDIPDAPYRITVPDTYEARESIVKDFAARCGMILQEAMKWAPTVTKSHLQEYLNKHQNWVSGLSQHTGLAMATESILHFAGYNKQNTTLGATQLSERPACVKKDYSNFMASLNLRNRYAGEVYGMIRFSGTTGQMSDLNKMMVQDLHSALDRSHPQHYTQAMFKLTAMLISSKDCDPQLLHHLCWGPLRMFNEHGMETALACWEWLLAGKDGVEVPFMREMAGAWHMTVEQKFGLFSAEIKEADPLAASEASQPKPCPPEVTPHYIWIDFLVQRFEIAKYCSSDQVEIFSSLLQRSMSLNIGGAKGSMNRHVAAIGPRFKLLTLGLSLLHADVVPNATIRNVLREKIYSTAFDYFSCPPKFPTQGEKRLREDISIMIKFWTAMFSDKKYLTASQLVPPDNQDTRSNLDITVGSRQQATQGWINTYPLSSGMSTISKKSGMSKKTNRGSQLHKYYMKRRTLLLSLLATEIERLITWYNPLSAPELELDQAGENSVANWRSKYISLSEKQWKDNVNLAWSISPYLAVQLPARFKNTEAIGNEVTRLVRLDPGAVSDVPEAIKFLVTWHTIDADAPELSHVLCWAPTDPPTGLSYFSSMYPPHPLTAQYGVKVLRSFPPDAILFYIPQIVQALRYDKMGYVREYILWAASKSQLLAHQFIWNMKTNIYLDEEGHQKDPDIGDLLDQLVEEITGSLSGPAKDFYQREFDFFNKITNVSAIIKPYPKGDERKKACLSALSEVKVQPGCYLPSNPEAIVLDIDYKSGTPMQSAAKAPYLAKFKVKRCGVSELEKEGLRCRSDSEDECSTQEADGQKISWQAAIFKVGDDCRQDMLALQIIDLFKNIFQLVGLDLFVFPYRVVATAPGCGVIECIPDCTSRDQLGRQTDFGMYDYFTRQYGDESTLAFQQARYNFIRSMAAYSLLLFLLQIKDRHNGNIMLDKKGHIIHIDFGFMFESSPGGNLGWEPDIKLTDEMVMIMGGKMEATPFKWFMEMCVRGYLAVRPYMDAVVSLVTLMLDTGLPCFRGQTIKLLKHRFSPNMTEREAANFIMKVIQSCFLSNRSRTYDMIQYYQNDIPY
Sequence of D(2) dopamine receptor (P14416 whole entry): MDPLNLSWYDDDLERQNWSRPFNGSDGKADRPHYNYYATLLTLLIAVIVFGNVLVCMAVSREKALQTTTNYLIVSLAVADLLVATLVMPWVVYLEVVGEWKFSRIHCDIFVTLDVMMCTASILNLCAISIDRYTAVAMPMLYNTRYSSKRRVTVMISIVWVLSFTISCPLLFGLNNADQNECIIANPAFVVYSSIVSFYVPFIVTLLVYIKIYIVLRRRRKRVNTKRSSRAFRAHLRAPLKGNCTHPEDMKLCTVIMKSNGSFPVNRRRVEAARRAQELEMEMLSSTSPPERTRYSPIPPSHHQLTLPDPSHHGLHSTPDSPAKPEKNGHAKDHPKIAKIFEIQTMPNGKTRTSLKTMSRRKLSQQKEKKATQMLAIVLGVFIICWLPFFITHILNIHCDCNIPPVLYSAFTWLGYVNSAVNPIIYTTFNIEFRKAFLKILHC
Sequence of Type-1 angiotensin II receptor (Homo sapiens) (P30556 whole entry): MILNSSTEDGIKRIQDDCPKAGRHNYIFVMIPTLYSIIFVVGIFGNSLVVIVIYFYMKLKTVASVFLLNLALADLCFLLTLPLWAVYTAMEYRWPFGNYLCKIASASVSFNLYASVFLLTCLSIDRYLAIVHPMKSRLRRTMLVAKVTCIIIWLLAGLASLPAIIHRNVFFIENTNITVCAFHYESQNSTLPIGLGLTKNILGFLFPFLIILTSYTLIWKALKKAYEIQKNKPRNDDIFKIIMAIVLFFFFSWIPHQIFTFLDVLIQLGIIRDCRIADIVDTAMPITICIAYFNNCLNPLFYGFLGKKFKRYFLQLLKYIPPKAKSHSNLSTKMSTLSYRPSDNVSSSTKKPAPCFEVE
Sequence of Serine/threonine-protein kinase PAK 4 (O96013 whole entry, looked up): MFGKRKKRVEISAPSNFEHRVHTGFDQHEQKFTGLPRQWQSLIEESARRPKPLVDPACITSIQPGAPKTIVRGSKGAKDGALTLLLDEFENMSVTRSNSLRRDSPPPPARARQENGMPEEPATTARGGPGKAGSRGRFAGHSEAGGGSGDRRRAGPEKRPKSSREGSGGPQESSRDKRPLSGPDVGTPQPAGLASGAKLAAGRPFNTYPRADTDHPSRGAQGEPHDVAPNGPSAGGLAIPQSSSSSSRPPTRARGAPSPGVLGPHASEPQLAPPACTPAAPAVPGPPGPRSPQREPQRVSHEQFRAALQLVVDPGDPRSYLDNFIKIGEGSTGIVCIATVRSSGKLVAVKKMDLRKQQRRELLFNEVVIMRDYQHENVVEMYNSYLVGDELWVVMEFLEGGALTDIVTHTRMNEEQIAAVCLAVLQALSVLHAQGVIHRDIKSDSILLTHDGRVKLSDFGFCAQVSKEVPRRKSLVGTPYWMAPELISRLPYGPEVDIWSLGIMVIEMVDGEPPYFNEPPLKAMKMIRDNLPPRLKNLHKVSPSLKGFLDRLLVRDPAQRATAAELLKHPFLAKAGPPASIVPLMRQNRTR

Consider `COCCN1CCC(c2cc(CN(C)C(=O)c3cccc(Oc4ccccc4)c3)ccn2)CC1`, for which the % activity is above 95% in assay [1] (at 1 µM) and 79% in assay [1] (at 10 µM). Take `N#Cc1cccc(-c2c[nH]c3ncnc(N4CCOCC4)c23)c1`: the % of control in assay [2] amounted to 100%. As for `CC(=O)c1cc(-c2ccccc2OCC2CC2)c2ncccn12`, the % of control in assay [3] is 91%. Regarding `CCN(CC)CCCCNc1ncc2cc(-c3cc(OC)cc(OC)c3)c(NC(=O)NC(C)(C)C)nc2n1`, the % of control in assay [4] was determined as 100%. With `Cc1cc(F)c(C(=O)Nc2cccc(-c3nncn3C(C)C)n2)cc1-n1cnc(C2CC2)c1`, the % of control in assay [5] came out at 100%. As for `O=C(NOC[C@H](O)CO)c1ccc(F)c(F)c1Nc1ccc(I)cc1F`, the % of control in [6] came out at 97%. As for `Cc1cc([C@@H](C)Nc2ccccc2C(=O)O)c2nc(N3CCOCC3)cc(=O)n2c1` [AZD-6482], the % of control in assay [7] is 100%. With `CC[C@@H]1[C@H](F)C(=O)N[C@@H]1COc1nccc2cc(C(N)=O)c(OC)cc12` [ZIMLOVISERTIB], the % of inhibition in assay [8] came out at 13.3%; in assay [9], 1.7%. On to `Cn1cc(Nc2nccc(N3CC4CCC(C3)N4C(=O)[C@@H]3CC3(F)F)n2)cn1`, for which the % of inhibition in assay [10] was 101%.

`CN(C)CCOc1ccc(-c2nc(-c3ccncc3)c(-c3ccc4c(c3)CC/C4=N\O)[nH]2)cc1`: the % of control in assay [11] stood at 76%.

`O[C@H]1CC[C@H](Nc2ncc3nc(Nc4c(F)cc(F)cc4F)n([C@H]4CCOC4)c3n2)CC1` registered a % of control in assay [12] of 81%. On to `CC(C)(O)[C@H](F)CN1Cc2cc(NC(=O)c3cnn4cccnc34)c(N3CCOCC3)cc2C1=O`, for which the dTM in [13] came out at 1.1 K.

In the case of `Nc1cnc(N2CCc3cc(S(=O)(=O)Nc4c(F)cc(Cl)cc4F)cc(N4CCCC4=O)c32)nc1` [TP-020n], in [14], the % of control is 100%. Take `CCn1c(-c2nc3cc(C(=O)N4CCCC(N)C4)ccc3n2C)cc2ccccc21` (stereo not drawn): the pXC50 at D(2) dopamine receptor was determined as 4.5 M. For the molecule `C=CC(=O)Nc1ccc(C(=O)Nc2[nH]nc3c2CN(C(=O)N[C@H](CN(C)C)c2ccccc2)C3(C)C)cc1`, the values for the % of engagement in assay [15] and in assay [16] were 5.7% and -13.3%, respectively.
